Measurements published in PMC7515829, “HKDC1 C-terminal based peptides inhibit extranodal natural killer/T-cell lymphoma by modulation of mitochondrial function and EBV suppression” (Leukemia, 2020).
Read-outs that look alike come from different tables or passages of the source.

Key:
MNCs from ENKTL patients = conditions: read-out: IC50 (µM) ENKTL, half-maximal cell death activity, peptides 0.1–15 µM, 6 h, PI staining, FACS, mean ± SEM, n in cell
Source text: (§1) We investigated the potential role of HKDC1-based peptides in ENKTL cells that were isolated from the MNCs of ENKTL patients or SNK6 cell line. Three different kinds of HKDC1-based targeting peptides, including the last 15 aa at either the N-terminal (HKN15) or C-terminal (HKC15), or the last eight aa at the C-terminal (HKC8) were selected; four different kinds of cell-penetrating sequences were employed to deliver the HKDC1-based peptides, including Antp (a 16 penetrating residue long sequence from the Drosophila antennapedia-homeodomain), penetration-accelerating segment, TAT (HIV-1 TAT sequence), and Tf (the Tf receptor (TfR) internalization sequence) sequences. All of the aa with the D-configuration (marked as D) were synthesized as retro-inverso peptides. […] We then evaluated the toxic effect of two peptides (including Tf-D-HKC15 and Tf-D-HKC8) on different kinds of primary and cancer cell lines (see details in Table 2). […] We also evaluated the peptide delivery efficiency using ^125I-labeled uptake assay for both Tf-D-HKC8 and Tf-D-HKC15 peptides.
(§2) Measurement of apoptosis and cell death. Apoptosis was evaluated by TUNEL assay using the In Situ Cell Death Detection Kit™ (Roche). Cells were fixed in 4% paraformaldehyde and labeled with TUNEL reagents. Stained cells were photographed by a fluorescence microscope (11). For cell death analysis, the propidium iodide (PI) staining was performed by addition of 6.25 µg/ml of PI to the cells, and cell death was immediately evaluated by FACS analysis (3).

SNK6 cells [1] = tested on: SNK6 cells
Source text: as §1, §2

SNK6 cells [2] = assay: ROS formation (CM-H2DCFDA); assay type: cell-based, human; conditions: 0.5 µM peptide, 6 h, compared with CTL group, n = 5 (Fig. 3a)
Experimental: Measurement of ROS generation. Treated cells were seeded in a 24-well plate and incubated with 10μM CM-H2DCFDA (Invitrogen) for 45 min at 37°C, and then the intracellular formation of reactive oxygen species (ROS) was measured at excitation/emission wavelengths of 485/530nm using a FLx800 microplate fluorescence reader (Bio-Tek). The data was normalized as arbitrary units (8, 11).

EBV [3] = assay: EBV viral genomes/cell by qPCR in SNK6 cells; assay type: cell-based; conditions: 0.5 µM peptide, 6 h, vs CTL, n = 4 (Fig. 3i)
Experimental: (§3) Detection of EBV copy number. Genomic DNA was extracted from treated SNK-6 cells or SNK-6 tumor tissue in mice using a QIAamp DNA Mini Kit (Qiagen). The EBV DNA copy number was measured through qPCR using 50ng of total DNA with EBV BMRF1 primers (see Table 1), and the results were normalized using cellular β-actin (primers see Table 1) as an internal control (13, 14). The Namalwa cell line, which contains 2 EBV viral genome copies, was used as a standard to prepare calibration curves for both EBV BMRF1 and β-actin genes, and the EBV viral load was presented as the number of viral genomes per cell (15, 16).

SNK6 cells [4] = assay: Intracellular ATP level (luciferin/luciferase); assay type: cell-based, human; conditions: 0.5 µM peptide, 6 h, vs CTL, n = 5 (Fig. 4g)
Experimental: Measurement of mitochondrial function. Intracellular ATP level was determined using the luciferin/luciferase-induced bioluminescence system. An ATP standard curve was generated at concentrations of 10^-12-10^-3M, and intracellular ATP levels were calculated and expressed as nmol/mg protein. Mitochondrial membrane potential (Δψm) was measured using TMRE (from Molecular Probes T-669) staining. A 600μM T-669 stock solution was prepared using DMSO. Cells were grown on coverslips and immersed in 600nM TMRE for 20 min at 37°C to load them with dye. The labeling medium was then aspirated and the cells were immersed in 150nM TMRE to maintain an equal distribution of the fluorophore. The coverslips were mounted with live cells onto confocal microscopes to image the cells using 548nm excitation/573nm emission filters, and the intensity of TMRE fluorescence was measured using Image J software. Data from 10-20 cells were collected for each experimental condition and mean values of fluorescence intensity ± SEM were calculated (12).

SNK6 cells [5] = assay: Cell migration assay; assay type: cell-based, human; conditions: 0.5 µM peptide, 6 h, vs CTL, n = 5 (Fig. 5b)
Experimental: Migration and invasion assays. Cell migration and invasion assays were performed in 24-well chemotaxis plates with an 8μm polycarbonate filter membrane. The plates were coated with 20μg Matrigel for invasion assays and uncoated for migration assays. Invasion and migration were expressed as the number of migrated cells bound per microscopic field and averaged from at least four fields per assay in at least 4 experiments (18, 19).

SNK6 cells [6] = assay: Colony formation in soft agar; assay type: cell-based, human; conditions: 0.5 µM peptide, 6 h, vs CTL, n = 5 (Fig. 5e)
Experimental: Colony formation in soft agar. This assay is a method for evaluating the ability of individual cell lines to grow in an anchorage-independent manner. Cells were resuspended in DMEM containing 5% FBS with 0.3% agarose and layered on top of 0.5% agarose in DMEM on 60-mm plates. 1000 cells were seeded in 60mm soft agar dishes for 30 days. The dishes were examined twice per week, and colonies that grew beyond […] in diameter were scored as positive. Each experiment was done in quadruplicate (8).

SNK6 cells [7] = conditions: 0.5 µM peptide, 6 h, vs CTL, n = 3 (Fig. 5g)
Experimental: Immunostaining. […] The cells were then washed three times and the FITC labeled anti-mouse secondary antibody (1:100) was added for blotting for another 1 hour. After thorough washing, the slides were visualized and photographed, the nuclei of cells were stained with 4’,6-diamidino-2-phenylindole dihydrochloride (DAPI, #D9542, from Sigma), and the positive Ki-67 cells were quantitated.

EBV [8] = assay: EBV viral genomes/cell by qPCR in tumor tissue; assay type: in vivo, mouse; conditions: SNK6 xenograft, nude mice; intratumoral 50 µM peptide every 2 days from day ~18; tissue day 50; qPCR vs CTL; n = 4
Experimental: as §3

SNK6 xenograft = assay: Tumor growth by H&E staining (tumor spots); assay type: in vivo, mouse; conditions: nude mice, intratumoral 50 µM peptide every 2 days from day ~18, tissue day 50, vs CTL, n = 5
Source text: Biomedical analysis of tumor tissues.

[9] = read-out: IC50 (µM) SNK6, half-maximal cell death activity, SNK6 cells, peptides 0.1–15 µM, 6 h, PI staining, FACS, mean ± SEM, n in cell (Table 1)

Substance | IC50 (MNCs from ENKTL patients) | IC50 (SNK6 cells [1]; [9]) | IC50 (SNK6 cells [1]; read-out: Peptide IC50 (µM), cell death, SNK6, Human natural killer/T-cell lymphoma/EBV(+), 0.1–15 µM, 6 h (suspension) or 12 h (adherent cells), PI/FACS, mean ± SEM (Table 2)) | ROS formation (SNK6 cells [2]) | EBV genome copies (EBV [3]) | intracellular ATP generation (SNK6 cells [4]) | cell migration (SNK6 cells [5]) | colony formation (SNK6 cells [6]) | cell proliferation by quantitation of Ki-67 positive cells (SNK6 cells [7]) | EBV genome replication in tumor (EBV [8]) | tumor growth using H&E staining (tumor spots) (SNK6 xenograft)
HAIYPRH-ITAVAKRLQQAQKEN [Tf-D-HKC15] | 0.9 ± 0.3 µM | 1.2 ± 0.5 µM | 1.2 ± 0.3 µM | 165% | 62% | 61% | 66% | 64% | 70% | 59% | 56%
HAIYPRH-LQQAQKEN [Tf-D-HKC8] | 0.2 ± 0.1 µM | 0.3 ± 0.2 µM |  | 229% | 21% | 30% | 23% | 28% | 27% | 25% | 23%
